Results: patent publication US7041461B2 (H. Lundbeck A/S, priority 1998, dated 2006)
“Also recorded” adds a separate entry of the source. Like-named read-outs stand apart in the source and are kept apart here. Non-standard residues stand in square brackets, D forms with d. Residues, ends and D or L forms follow the SMILES beside them. No end group written: not given here. NMeF = CN[C@@H](Cc1ccccc1)C(=O)O

What was measured:
NPFF-1 receptor = biological target: T1, NPFF-1 receptor (Rattus norvegicus, UniProt Q9EP86); experiment: Total inositol phosphate release in transiently transfected Cos-7 cells; type: cell-based
T1 construct: expressed in transfected cells; host or cells: Cos-7 cells, transient, intact cells

SNORF2 (NPFF1) = biological target: T2, SNORF2 (NPFF1) (Rattus norvegicus, UniProt Q9EP86); experiment: Voltage-clamp electrophysiology in Xenopus oocytes expressing SNORF2 (NPFF1) and chimeric Gαq/z; type: cell-based; details: for inward current response: 1 μM, holding potential −80 mV; for activation of oocytes injected with SNORF2 synthetic RNA: unrelated neuropeptides and neurotransmitters, concentration not given
T2 construct: from linearized plasmids or PCR products containing the complete coding region of the genes; expressed in transfected cells; host or cells: Xenopus laevis oocytes injected with synthetic RNA
Description: (§1) Oocytes were harvested from Xenopus laevis and injected with mRNA transcripts as previously described (Quick and Lester, 1994; Smith et al., 1997). […] Three to eight hours prior to recording, oocytes were injected with 500 pg Gαq/z mRNA in order to observe coupling to Ca^++ activated Cl^− currents. Dual electrode voltage clamp (Axon Instruments Inc.) was performed using 3 M KCl-filled glass microelectrodes having resistances of 1–2 Mohm. Unless otherwise specified, oocytes were voltage clamped at a holding potential of −80 mV. During recordings, oocytes were bathed in continuously flowing (1–3 ml/min) medium containing 96 mM NaCl, 2 mM KCl, 1.8 mM CaCl2, 1 mM MgCl2, and 5 mM HEPES, pH 7.5 (ND96). Drugs were applied either by local perfusion from a […] glass capillary tube fixed at a distance of 0.5 mm from the oocyte, or by switching from a series of gravity fed perfusion lines.
Heterologous expression of GPCRs in Xenopus oocytes has been widely used to determine the identity of signaling pathways activated by agonist stimulation (Gundersen et al., 1983; Takahashi et al., 1987). Activation of the phospholipase C (PLC) pathway is assayed by applying test compound in ND96 solution to oocytes previously injected with mRNA for the mammalian receptor and observing inward currents at a holding potential of −80 mV. The appearance of currents that reverse at −25 mV and display other properties of the Ca^++-activated Cl^− (chloride) channel is indicative of mammalian receptor-activation of PLC and release of IP3 and intracellular Ca^++.
Control oocytes receiving only G-protein synthetic RNA were unresponsive to these peptides. […] Similarly, SNORF2-like was renamed NPFF-like.

[1] = biological target: rat spinal cord membrane receptor; experiment: Radioligand binding to rat spinal cord membranes; details: * marks difference from NPFF1
Description: (§2) Transfected cells from culture flasks are scraped into 5 ml of 20 mM Tris-HCl, 5 mM EDTA, pH 7.5, and lysed by sonication. The cell lysates are centrifuged at 1000 rpm for 5 min. at 4° C., and the supernatant is centrifuged at 30,000× g for 20 min. at 4° C. […] Optimal membrane suspension dilutions, defined as the protein concentration required to bind less than 10% of the added radioligand, are added to 96-well polpropylene microtiter plates containing ^3H-labeled compound, unlabeled compounds, and binding buffer to a final volume of 250 μl. In equilibrium saturation binding assays membrane preparations are incubated in the presence of increasing concentrations of [^3H]-labeled compound.
(§3) Competition assay: 50 pM radioligand, 10–12 points. Binding reaction mixtures are incubated for 2 hr at 25° C., and the reaction stopped by filtration through a double layer of GF filters treated with 0.1% polyethyleneimine, using a cell harvester. Wash buffer: 50 mM Tris-HCl, 0.1% BSA. Radioactivity may be measured by scintillation counting and data are analyzed by a computerized non-linear regression program. Non-specific binding is defined as the amount of radioactivity remaining after incubation of membrane protein in the presence of 1 μM final concentration […]. Protein concentration may be measured by the Bradford method using Bio-Rad Reagent, with bovine serum albumin as a standard.
The binding profile of rat NPFF1 was compared to that of rat spinal cord membranes. […] (See * Table 2).

[2] = biological target: T3, cloned rat NPFF1 receptor (Rattus norvegicus, UniProt Q9EP86); experiment: Radioligand binding to cloned rat NPFF1 receptor, membranes of transiently transfected COS-7 cells
T3 construct: expressed in transfected cells; host or cells: COS-7 cells, transient; membranes
Description: as §2, with “[…],” for “are added to 96-well polpropylene microtiter plates containing ^3H-labeled compound,”
as §3
Cos-7 cells transiently expressing the gene encoding the novel rat NPFF1 receptor were used for pharmacological evaluation. […]

NPFF receptors = details: at a concentration of 10 μM; spinal cord membranes; cited from earlier work
NPFF2 (hNPFF2) = biological target: T4, NPFF2 (hNPFF2) (Homo sapiens, UniProt Q9Y5X5); experiment: Voltage-clamp electrophysiology in Xenopus oocytes expressing NPFF2 (NPFF-like) and chimeric Gαq/z; type: cell-based; details: 1 μM; oocytes with NPFF2 (NPFF-like) mRNA and Gαq/z; −80 mV
T4 construct: BO89, was determined to be a full length clone with no point mutations; expressed in transfected cells; host or cells: Xenopus laevis oocytes injected with synthetic mRNA
Description: Electrophysiological responses in voltage-clamped oocytes expressing NPFF2 mRNA. […] Oocytes were clamped at a holding potential of −80 mV.
For expression of NPFF2, mRNA transcripts were generated as described for NPFF1, using PCR products from ligation reactions or linearized DNA from B089 as DNA templates. Oocytes were injected with 5–50 ng NPFF2 mRNA and incubated as previously described.
as §1

[3] = competition of [125I]D-Tyr-NPFF binding, transiently transfected COS-7 membranes
[4] = competition of [125I]D-Tyr-NPFF binding, transiently transfected COS-7 membranes, read-out: pKi for cloned rat NPFF1 receptor binding in COS-7 cells, MEAN (converted)

T3 sequence (Q9EP86 whole entry): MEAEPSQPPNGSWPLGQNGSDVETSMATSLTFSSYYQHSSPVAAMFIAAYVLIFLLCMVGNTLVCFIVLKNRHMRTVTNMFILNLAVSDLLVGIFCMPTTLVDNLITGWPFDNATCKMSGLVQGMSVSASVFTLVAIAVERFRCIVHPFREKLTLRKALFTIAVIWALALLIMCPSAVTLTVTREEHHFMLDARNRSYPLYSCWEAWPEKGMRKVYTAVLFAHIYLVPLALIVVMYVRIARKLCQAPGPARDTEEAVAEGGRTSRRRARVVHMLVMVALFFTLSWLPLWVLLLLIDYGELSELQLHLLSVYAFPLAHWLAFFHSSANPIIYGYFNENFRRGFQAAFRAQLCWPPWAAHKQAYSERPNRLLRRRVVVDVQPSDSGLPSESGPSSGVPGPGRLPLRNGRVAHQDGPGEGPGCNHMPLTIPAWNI
T2 sequence (Q9EP86 whole entry): as above
T4 sequence (Q9Y5X5 103-522): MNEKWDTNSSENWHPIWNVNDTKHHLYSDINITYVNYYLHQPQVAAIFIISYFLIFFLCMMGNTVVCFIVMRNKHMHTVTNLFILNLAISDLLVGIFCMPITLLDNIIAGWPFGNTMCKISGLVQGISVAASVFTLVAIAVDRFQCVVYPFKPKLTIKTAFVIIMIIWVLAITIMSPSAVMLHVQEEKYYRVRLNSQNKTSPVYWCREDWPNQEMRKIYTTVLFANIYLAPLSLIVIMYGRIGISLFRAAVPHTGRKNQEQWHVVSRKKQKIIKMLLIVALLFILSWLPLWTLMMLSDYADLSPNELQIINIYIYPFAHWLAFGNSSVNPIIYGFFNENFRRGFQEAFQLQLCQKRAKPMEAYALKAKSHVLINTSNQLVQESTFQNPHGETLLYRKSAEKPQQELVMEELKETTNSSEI
T1 sequence (Q9EP86 whole entry): as the sequence (Q9EP86 whole entry) above

CC(C)C[C@H](NC(=O)[C@@H](N)Cc1ccccc1)C(=O)N[C@@H](Cc1ccccc1)C(=O)N[C@@H](CCC(N)=O)C(=O)N1CCC[C@H]1C(=O)N[C@@H](CCC(N)=O)C(=O)N[C@@H](CCCNC(=N)N)C(=O)N[C@@H](Cc1ccccc1)C(N)=O [NPFF(F-8-Fa)]
Emax, total IP release (NPFF-1 receptor; Cos-7 cells transfected with NPFF1 alone): approximately 200 % basal
Emax, total IP release (NPFF-1 receptor; Cos-7 cells transfected with NPFF1 receptor and Gq/Gz chimera): approximately 1500 % basal
inward current response (SNORF2 (NPFF1); oocytes with SNORF2 and Gαq/z): robust inward currents
threshold for activation of inward current (SNORF2 (NPFF1); oocytes with SNORF2 and Gαq/z): 30 nM

a-MSH
pKi for rat spinal cord membrane receptor binding, MEAN [1]: 5.000

NCCc1c[nH]c2ccc(O)cc12 [5-HT]
activation of oocytes injected with SNORF2 synthetic RNA (SNORF2 (NPFF1)): failed to activate

Cc1nc2sccn2c(=O)c1CCN1CCC(=C(c2ccc(F)cc2)c2ccc(F)cc2)CC1 [ritanserine]
pKi for rat spinal cord membrane receptor binding, MEAN [1]: 5.000
pKi for cloned rat NPFF1 receptor binding in COS-7 cells, MEAN [2, 3]: 5.000

CN1CC[C@]23c4c5ccc(O)c4O[C@H]2[C@@H](O)C=C[C@H]3[C@H]1C5 [morphine]
inhibition of [125I](1DMe)Y8Fa binding (NPFF receptors): No inhibition

CSCC[C@H](NC(=O)[C@H](Cc1ccc(OS(=O)(=O)O)cc1)NC(=O)[C@@H](N)CC(=O)O)C(=O)NCC(=O)N[C@@H](Cc1c[nH]c2ccccc12)C(=O)N[C@@H](CCSC)C(=O)N[C@@H](CC(=O)O)C(=O)N[C@@H](Cc1ccccc1)C(N)=O [CCK8]
pKi for rat spinal cord membrane receptor binding, MEAN [1]: 5.000

ibogaine
pKi for rat spinal cord membrane receptor binding, MEAN [1]: 5.000

orexin B: unrelated neuropeptide
activation of oocytes injected with SNORF2 synthetic RNA (SNORF2 (NPFF1)): failed to activate

substance P
inhibition of [125I](1DMe)Y8Fa binding (NPFF receptors): No inhibition
pKi for rat spinal cord membrane receptor binding, MEAN [1]: 5.000

N=C(N)NCCC[C@@H](N)C(=O)O [D-arginine]
pKi for rat spinal cord membrane receptor binding, MEAN [1]: 5.000
pKi for cloned rat NPFF1 receptor binding in COS-7 cells, MEAN [2, 3]: 5.000

PDVDHVFLRF-NH2 [SchistFLRF]
Ki [2]: 1100 nM

CNCCCN1c2ccccc2CCc2ccccc21 [desipramine]
pKi for rat spinal cord membrane receptor binding, MEAN [1]: 5.000
pKi for cloned rat NPFF1 receptor binding in COS-7 cells, MEAN [2, 3]: 5.000

AGEGLSSPYWSLAAPQRF-NH2 [[Y^9]A18Fa]
inward current response (SNORF2 (NPFF1); oocytes with SNORF2 and Gαq/z): displayed activity
Ki [2, 4]: 27.7 nM

melanin concentrating hormone: unrelated neuropeptide
activation of oocytes injected with SNORF2 synthetic RNA (SNORF2 (NPFF1)): failed to activate

CC(C)C[C@@H](NC(=O)[C@H](N)Cc1ccc(O)cc1)C(=O)N[C@H](Cc1ccccc1)C(=O)N[C@@H](CCC(N)=O)C(=O)N1CCC[C@H]1C(=O)N[C@@H](CCC(N)=O)C(=O)N[C@@H](CCCNC(=N)N)C(=O)N[C@@H](Cc1ccccc1)C(N)=O [(3D)Y8Fa] (H-[dY][dL][dF]QPQRF-NH2; N-terminus assumed)
Ki [2, 4]: 2.38 nM

neurokinin A: unrelated neuropeptide
inward current response (NPFF2 (hNPFF2)): failed to activate responses; also recorded: no response is observed

CC(C)C[C@H](NC(=O)[C@H](CCCCN)NC(=O)[C@H](CCCN=C(N)N)NC(=O)[C@H](C)NC(=O)[C@H](CO)NC(=O)[C@H](CCCCN)NC(=O)[C@H](CCCN=C(N)N)NC(=O)[C@H](C)NC(=O)CNC(=O)[C@@H](NC(=O)[C@H](Cc1ccccc1)NC(=O)CNC(=O)CNC(=O)[C@@H](N)Cc1ccccc1)[C@@H](C)O)C(=O)N[C@@H](C)C(=O)N[C@@H](CC(N)=O)C(=O)N[C@@H](CCC(N)=O)C(=O)O [nociceptin]
pKi for rat spinal cord membrane receptor binding, MEAN [1]: 5.000
activation of oocytes injected with SNORF2 synthetic RNA (SNORF2 (NPFF1)): failed to activate
pKi for cloned rat NPFF1 receptor binding in COS-7 cells, MEAN [2, 3]: 5.000

COc1ccc2c(c1)[nH]c1c(C)nccc12 [harmine]
pKi for rat spinal cord membrane receptor binding, MEAN [1]: 5.000
pKi for cloned rat NPFF1 receptor binding in COS-7 cells, MEAN [2, 3]: 5.000

NCCc1ccc(O)c(O)c1 [dopamine]
pKi for rat spinal cord membrane receptor binding, MEAN [1]: 5.000
pKi for cloned rat NPFF1 receptor binding in COS-7 cells, MEAN [2, 3]: 5.000

CSCC[C@H](NC(=O)[C@@H]1CCCN1)C(=O)N[C@@H](CCCNC(=N)N)C(=O)N[C@@H](Cc1ccccc1)C(N)=O [PMRFa] (H-PMRF-NH2; N-terminus assumed)
Ki [2, 4]: 2.82 nM

N=C(N)NCCC[C@H](N)C(=O)O [L-arginine]
pKi for rat spinal cord membrane receptor binding, MEAN [1]: 5.000
pKi for cloned rat NPFF1 receptor binding in COS-7 cells, MEAN [2, 3]: 5.000

YLFQPQRF-NH2 [Y8Fa] [listing 1 of 2 here]
Ki [2, 4]: 4.15 nM

PYY: unrelated neuropeptide
activation of oocytes injected with SNORF2 synthetic RNA (SNORF2 (NPFF1)): failed to activate

CCNC(C)Cc1cccc(C(F)(F)F)c1 (centres unmarked) [fenfluramine]
pKi for rat spinal cord membrane receptor binding, MEAN [1]: 5.000
pKi for cloned rat NPFF1 receptor binding in COS-7 cells, MEAN [2, 3]: 5.000

C[C@@H]1CN([C@H]2CC[C@](C#N)(c3ccc(F)cc3)CC2)CC[C@]1(C(=O)O)c1ccccc1 [levocabastine]
pKi for rat spinal cord membrane receptor binding, MEAN [1]: 5.000
pKi for cloned rat NPFF1 receptor binding in COS-7 cells, MEAN [2, 3]: 5.000

CC(C)C[C@H](NC(=O)[C@H](N)Cc1ccc(O)cc1)C(=O)N(C)[C@@H](Cc1ccccc1)C(=O)N[C@@H](CCC(N)=O)C(=O)N1CCC[C@H]1C(=O)N[C@@H](CCC(N)=O)C(=O)N[C@@H](CCCN=C(N)N)C(=O)N[C@@H](Cc1ccccc1)C(N)=O [(D-Tyr^1-(NMe)Phe^3)NPFF] (H-[dY]L[NMeF]QPQRF-NH2)
Ki [2, 4]: 2.82 nM

YLFQPQRF-NH2 [Y8Fa] [listing 2 of 2 here]
inward current response (SNORF2 (NPFF1); oocytes with SNORF2 and Gαq/z): displayed activity

orexin A: unrelated neuropeptide (QPLPDCCRQKTCSCRLYELLHGAGNHAAGILTL; ends and bridges not checked; cysteine pairing not given here; UniProt O43612 34-66, looked up)
inward current response (NPFF2 (hNPFF2)): failed to activate responses; also recorded: no response is observed

NPY: unrelated neuropeptide
inhibition of [125I](1DMe)Y8Fa binding (NPFF receptors): No inhibition
inward current response (NPFF2 (hNPFF2)): failed to activate responses; also recorded: no response is observed

TEPGLEEVGEIEQKQLQ [nocistatin]
pKi for rat spinal cord membrane receptor binding, MEAN [1]: 5.000

B1: CCK: unrelated neuropeptide (peptide, UniProt P06307 21-115, looked up)
Cholecystokinin: QPVPPADPAGSGLQRAEEAPRRQLRVSQRTDGESRAHLGALLARYIQQARKAPSGRMSIVKNLQNLDPSHRISDRDYMGWMDFGRRSAEEYEYPS
modifications: Cholecystokinin
notes: unrelated neuropeptide
activation of oocytes injected with SNORF2 synthetic RNA (SNORF2 (NPFF1)): failed to activate
